The data set is described as follows: In vitro liver microsome experiment (glucuronidation with UDPGA, UPLC-MS/MS detection). The format is in vitro ADME. To be noted: pooled human liver microsomes, alamethicin, 37° C., incubation 0 min and 6 h. As to the method: In Vitro Liver Microsome Experiment
Experimental group: 136 μL of 50 mM Tris buffer was added to a 1.5 mL centrifuge tube, added with 20 μL of 100 mM aqueous D-glucaro-1,4-lactone solution, 10 μL of 10 mM aqueous magnesium chloride (MgCl2) solution, 10 μL of 40 mg/mL pooled human liver microsomes, and 2 μL of 50 mg/mL alamethicin, respectively, and preincubated on ice for 15 min; 2 μL of 2 mg/mL substrate (3-PBA) was added, and preincubated with 100 mM uridine diphosphate glucuronic acid (UDPGA) solution for 5 min at 37° C.; 20 μL of preincubated UDPGA solution was added to the reaction system to start the reaction, and incubation proceeded. At 0 min and 6 h, 200 μL of glacial acetonitrile was added to the reaction system to terminate the reaction, respectively. The reaction system was vortexed for 1 min and centrifuged at 13,000 r/min for 10 min at 4° C. All supernatants were put in a test tube, nitrogen-blown at 37° C., and reconstituted with 200 μL of methanol. The samples were analyzed and detected by UPLC-MS/MS. The difference between the blank group and the experimental group was only that 3-PBA was not added, and the difference between the control group and the experimental group was only that UDPGA was not added. […]

With `CC1(C)Cc2cccc(O)c2O1` [carbofuran phenol], the “phase II metabolism (formation of glucuronic acid conjugate) detected by UPLC-MS/MS” value was “carbofuran phenol-glucuronic acid conjugate was detected”.
For the compound `O=C(O)c1cccc(Oc2ccccc2)c1` [3-PBA, 3-phenoxybenzoic acid], the “phase II metabolism (formation of glucuronic acid conjugate) detected by UPLC-MS/MS” value is listed as “underwent phase II metabolic reaction”.

The values are drawn from US12600741B2, “3-phenoxybenzoic acid-glucuronic acid conjugate, and preparation method and use thereof” (Shanxi Medical University, priority 2023, dated 2026).
